Data reported in the NIST ThermoML archive (doi:10.1021/acs.jced.8b00487).
Where “and” joins values, the source holds several entries; their conditions need not be identical. Equal values may be shown once. ± gives the expanded uncertainty stated by the source.

Key:
[1] = 298.15 K; 101.33 kPa; Liquid; Vibrating tube method
[2] = xn = mol fraction of the nth substance listed; settings: 298.15 K, 101 kPa, Liquid, Vibrating tube method

Work on `Cc1ccccc1C` [1,2-dimethylbenzene] yielded a mass density [1] of 875.6 ± 0.5 kg/m3.
`CCCCC(CC)COP(=O)(O)OCC(CC)CCCC` (stereo unspecified) [bis(2-ethylhexyl) hydrogen phosphate] + CCCCC(CC)COP(=O)([O-])OCC(CC)CCCC.CCCCC(CC)COP(=O)([O-])OCC(CC)CCCC.CCCCC(CC)COP(=O)([O-])OCC(CC)CCCC.[Dy+3] gave a mass density ([2]; x2 = 0) of 971 ± 2 kg/m3.
`CCCCC(CC)COP(=O)(O)OCC(CC)CCCC` (stereo unspecified) [bis(2-ethylhexyl) hydrogen phosphate] + CCCCC(CC)COP(=O)([O-])OCC(CC)CCCC.CCCCC(CC)COP(=O)([O-])OCC(CC)CCCC.CCCCC(CC)COP(=O)([O-])OCC(CC)CCCC.[Eu+3] gave a mass density ([2]; x2 = 0) of 970.5 ± 2 kg/m3.
With `CCCCC(CC)COP(=O)(O)OCC(CC)CCCC` (stereo unspecified) [bis(2-ethylhexyl) hydrogen phosphate] + CCCCC(CC)COP(=O)([O-])OCC(CC)CCCC.CCCCC(CC)COP(=O)([O-])OCC(CC)CCCC.CCCCC(CC)COP(=O)([O-])OCC(CC)CCCC.[Gd+3] the mass density ([2]; x2 = 0) was 970.5 ± 2 kg/m3.
With `CCCCC(CC)COP(=O)(O)OCC(CC)CCCC` (stereo unspecified) [bis(2-ethylhexyl) hydrogen phosphate] + CCCCC(CC)COP(=O)([O-])OCC(CC)CCCC.CCCCC(CC)COP(=O)([O-])OCC(CC)CCCC.CCCCC(CC)COP(=O)([O-])OCC(CC)CCCC.[Nd+3] the mass density ([2]; x2 = 0) was 971 ± 2 kg/m3 and 969.1 ± 2 kg/m3 and 970.5 ± 2 kg/m3.
In the case of `CCCCC(CC)COP(=O)(O)OCC(CC)CCCC` (stereo unspecified) [bis(2-ethylhexyl) hydrogen phosphate] + CCCCC(CC)COP(=O)([O-])OCC(CC)CCCC.CCCCC(CC)COP(=O)([O-])OCC(CC)CCCC.CCCCC(CC)COP(=O)([O-])OCC(CC)CCCC.[Sm+3], the mass density ([2]; x2 = 0) is reported as 971 ± 2 kg/m3 and 970.5 ± 2 kg/m3.
`CCCCC(CC)COP(=O)(O)OCC(CC)CCCC` (stereo unspecified) [bis(2-ethylhexyl) hydrogen phosphate] + CCCCC(CC)COP(=O)([O-])OCC(CC)CCCC.CCCCC(CC)COP(=O)([O-])OCC(CC)CCCC.CCCCC(CC)COP(=O)([O-])OCC(CC)CCCC.[Tb+3] showed a mass density ([2]; x2 = 0) of 970.5 ± 2 kg/m3.
In the case of `CCCCC(CC)COP(=O)(O)OCC(CC)CCCC` (stereo unspecified) [bis(2-ethylhexyl) hydrogen phosphate] + Cc1ccccc1C, the mass density ([2]; x2 = 0.5002) is reported as 946.2 ± 4 kg/m3 and 946.1 ± 4 kg/m3, the mass density ([2]; x2 = 0.5198) is reported as 944.7 ± 4 kg/m3 and the mass density ([2]; x2 = 0.5201) is reported as 944.6 ± 4 kg/m3. The mass density ([2]; x2 = 0.7313) was 924.4 ± 4 kg/m3, the mass density ([2]; x2 = 0.8195) was 912.6 ± 4 kg/m3 and 912.4 ± 4 kg/m3 and the mass density ([2]; x2 = 0.8197) was 912.5 ± 4 kg/m3. The mass density ([2]; x2 = 0.8203) was 912.4 ± 4 kg/m3, the mass density ([2]; x2 = 0.8204) was 912.2 ± 4 kg/m3 and the mass density ([2]; x2 = 0.9275) was 893.2 ± 4 kg/m3 and 892.9 ± 4 kg/m3. The mass density ([2]; x2 = 0.9406) was 890.1 ± 4 kg/m3 and 890.3 ± 4 kg/m3 and 890 ± 4 kg/m3, the mass density ([2]; x2 = 0.9759) was 882 ± 4 kg/m3 and the mass density ([2]; x2 = 0.976) was 882 ± 4 kg/m3 and 881.9 ± 4 kg/m3 and 881.8 ± 4 kg/m3.
`CCCCC(CC)COP(=O)([O-])OCC(CC)CCCC.CCCCC(CC)COP(=O)([O-])OCC(CC)CCCC.CCCCC(CC)COP(=O)([O-])OCC(CC)CCCC.[Dy+3]` (stereo unspecified) [dysprosium(III) bis(2-ethylhexyl) phosphate] + CCCCC(CC)COP(=O)(O)OCC(CC)CCCC gave a mass density ([2]; x1 = 0.0039) of 973.1 ± 2 kg/m3, a mass density ([2]; x1 = 0.00883) of 975.7 ± 2 kg/m3 and a mass density ([2]; x1 = 0.02055) of 981.6 ± 2 kg/m3. For the same compound, the mass density ([2]; x1 = 0.03494) was 988.7 ± 2 kg/m3 and the mass density ([2]; x1 = 0.04879) was 995.1 ± 2 kg/m3.
For `CCCCC(CC)COP(=O)([O-])OCC(CC)CCCC.CCCCC(CC)COP(=O)([O-])OCC(CC)CCCC.CCCCC(CC)COP(=O)([O-])OCC(CC)CCCC.[Eu+3]` (stereo unspecified) [europium(III) bis(2-ethylhexyl) phosphate] + CCCCC(CC)COP(=O)(O)OCC(CC)CCCC, the mass density ([2]; x1 = 0.01457) was 977.5 ± 2 kg/m3, the mass density ([2]; x1 = 0.03221) was 985.6 ± 2 kg/m3 and the mass density ([2]; x1 = 0.04158) was 989.9 ± 2 kg/m3. It also gave a mass density ([2]; x1 = 0.05518) of 995.6 ± 2 kg/m3 and a mass density ([2]; x1 = 0.07111) of 1001.7 ± 2 kg/m3.
`CCCCC(CC)COP(=O)([O-])OCC(CC)CCCC.CCCCC(CC)COP(=O)([O-])OCC(CC)CCCC.CCCCC(CC)COP(=O)([O-])OCC(CC)CCCC.[Gd+3]` (stereo unspecified) [gadolinium(III) bis(2-ethylhexyl) phosphate] + CCCCC(CC)COP(=O)(O)OCC(CC)CCCC showed a mass density ([2]; x1 = 0.01568) of 978.4 ± 2 kg/m3, a mass density ([2]; x1 = 0.0349) of 987.4 ± 2 kg/m3 and a mass density ([2]; x1 = 0.04335) of 991.2 ± 2 kg/m3. It also gave a mass density ([2]; x1 = 0.05925) of 997.8 ± 2 kg/m3.
For `CCCCC(CC)COP(=O)([O-])OCC(CC)CCCC.CCCCC(CC)COP(=O)([O-])OCC(CC)CCCC.CCCCC(CC)COP(=O)([O-])OCC(CC)CCCC.[Nd+3]` (stereo unspecified) [neodymium(III) bis(2-ethylhexyl) phosphate] + CCCCC(CC)COP(=O)(O)OCC(CC)CCCC, the mass density ([2]; x1 = 0.01187) was 976.8 ± 2 kg/m3, the mass density ([2]; x1 = 0.01364) was 975.7 ± 2 kg/m3 and the mass density ([2]; x1 = 0.01427) was 977.3 ± 2.1 kg/m3. For the same compound, the mass density ([2]; x1 = 0.02626) was 981.7 ± 2.5 kg/m3, the mass density ([2]; x1 = 0.02653) was 983.6 ± 2.5 kg/m3 and the mass density ([2]; x1 = 0.02822) was 983.8 ± 2 kg/m3. For the same compound, the mass density ([2]; x1 = 0.03921) was 988.6 ± 2 kg/m3, the mass density ([2]; x1 = 0.0402) was 987.6 ± 2 kg/m3 and the mass density ([2]; x1 = 0.04214) was 990.4 ± 2 kg/m3. The mass density ([2]; x1 = 0.04446) was 991 ± 2 kg/m3, the mass density ([2]; x1 = 0.04708) was 992.1 ± 2 kg/m3 and the mass density ([2]; x1 = 0.04955) was 991.6 ± 2 kg/m3. For the same compound, the mass density ([2]; x1 = 0.05317) was 994.9 ± 2 kg/m3, the mass density ([2]; x1 = 0.0729) was 1002.3 ± 2 kg/m3 and the mass density ([2]; x1 = 0.07322) was 1002.5 ± 2 kg/m3. The mass density ([2]; x1 = 0.07707) was 1002.6 ± 2 kg/m3 and the mass density ([2]; x1 = 0.0837) was 1006.6 ± 2 kg/m3.
Compound `CCCCC(CC)COP(=O)([O-])OCC(CC)CCCC.CCCCC(CC)COP(=O)([O-])OCC(CC)CCCC.CCCCC(CC)COP(=O)([O-])OCC(CC)CCCC.[Sm+3]` (stereo unspecified) [samarium(III) bis(2-ethylhexyl) phosphate] + CCCCC(CC)COP(=O)(O)OCC(CC)CCCC has a mass density ([2]; x1 = 0.00583) of 974 ± 2 kg/m3, a mass density ([2]; x1 = 0.01288) of 976.9 ± 2 kg/m3 and a mass density ([2]; x1 = 0.01616) of 978.9 ± 2 kg/m3. It also gave a mass density ([2]; x1 = 0.02646) of 983.1 ± 2 kg/m3, a mass density ([2]; x1 = 0.03185) of 986.2 ± 2 kg/m3 and a mass density ([2]; x1 = 0.03372) of 986.4 ± 2 kg/m3. The mass density ([2]; x1 = 0.05017) was 993.9 ± 2 kg/m3, the mass density ([2]; x1 = 0.05958) was 997.2 ± 2 kg/m3 and the mass density ([2]; x1 = 0.06022) was 998.2 ± 2 kg/m3. For the same compound, the mass density ([2]; x1 = 0.07053) was 1001.8 ± 2 kg/m3.
`CCCCC(CC)COP(=O)([O-])OCC(CC)CCCC.CCCCC(CC)COP(=O)([O-])OCC(CC)CCCC.CCCCC(CC)COP(=O)([O-])OCC(CC)CCCC.[Tb+3]` (stereo unspecified) [terbium(III) bis(2-ethylhexyl) phosphate] + CCCCC(CC)COP(=O)(O)OCC(CC)CCCC showed a mass density ([2]; x1 = 0.00621) of 973.7 ± 2 kg/m3, a mass density ([2]; x1 = 0.0103) of 975.8 ± 2 kg/m3 and a mass density ([2]; x1 = 0.01167) of 976.6 ± 2 kg/m3. It also gave a mass density ([2]; x1 = 0.01875) of 980 ± 2 kg/m3, a mass density ([2]; x1 = 0.02771) of 984.4 ± 2 kg/m3 and a mass density ([2]; x1 = 0.04671) of 993.3 ± 2 kg/m3.
